In brackets after ≈: the same amount, converted by molar mass. Counter-ions that a name gives are not always drawn.
Experiments:
[1] = Solubility test at pH=4 from phosphate buffer pH 6 0.1M, by HPLC; assay type: physicochemical; conditions: for solubility at 5 min: aqueous buffer, thermodynamic from solid, phosphate buffer pH 6 0.1M, HPLC, first figure of the S/pH cell, the pH of the sample is the second; for pH (of the solubility sample): second figure of the S/pH cell, pH noted for the solubility sample
Protocol: The results for solubility, S, and pH are shown in the table below and are expressed in mg/ml.
A phosphate buffer, pH6, 0.1M, was prepared by adding 6.15 ml of 0.1M Na2HPO4 to 43.85 ml of 0.1M NaH2PO4. The solution was made up to 100 ml with filtered water using a Millipore system (trade mark).
Reference (Test Product in a Concentration in which the Latter is Soluble and which Acts as an Internal Reference)
About 0.2 mg (in a boat) was weighed out exactly and diluted in 1 ml of H2O/CH3CN: (50:50), i.e. 0.2 mg/ml, then the sample was subjected to ultrasound for 5 minutes.
About 4 mg (in a boat) was weighed out exactly and diluted in 400 μl (i.e. 10 mg/ml) of pH6 phosphate buffer (0.1M), then the sample was subjected to ultrasound for 5 minutes.
The pH was noted and if the pH was below 4, 1 μl of NaOH 1N was added (from 1 μl in 1 μl) until the pH was more than 4, then the pH was noted again. The solution (0.45 μm) was filtered then if necessary diluted with the phosphate buffer pH6. (If the product re-precipitated after diluting, the diluted sample was ignored, the mother solution was used and the solubility was determined at a wavelength other than λmax, to avoid saturating the signal.
The solubility of the compound was then determined by HPLC under the following conditions:
Instrument: Agilent 1100 chromatograph
Column temperature: 30° C. Flow rate: 0.8 ml/min Detection: λ=230 nm Injection volume: 5 μl

[2] = at a pH of 3; cited from earlier work

Compound	solubility at 5 min [1] [mg/mL]	pH (of the solubility sample) [1]	solubility in water S [2] [mg/mL]
CCCN(CC)CCCc1ccc(C(=O)c2c(C)cc3ccccn23)cc1 [compound 26, (4-{3-[ethyl(propyl)amino]propyl}phenyl)(2-methylindolizin-3-yl)methanone hydrochloride]	1.49	7.14	–
CCCCc1cc2ccccn2c1C(=O)c1ccc(CCCCN(CC)CC)cc1.O=C(O)C(=O)O [compound 4, (2-butylindolizin-3-yl){4-[4-(diethylamino)butyl]phenyl}methanone oxalate]	> 10	4.10	–
CCCCc1oc2ccc(NS(C)(=O)=O)cc2c1C(=O)c1ccc(OCCCN(CCCC)CCCC)cc1 [Dronedarone]	–	–	0.247 (≈ 444 µM)
CCCCN(CCCC)CCCc1ccc(C(=O)c2c(CCC)cc3ccccn23)cc1 [compound 19, {4-[3-(dibutylamino)propyl]phenyl}(2-propylindolizin-3-yl)methanone hydrochloride]	4.07	5.27	–
CCCCc1cc2ccccn2c1C(=O)c1ccc(CCCN2C[C@@H](C)N(C)[C@@H](C)C2)cc1 [compound 40, (2-butylindolizin-3-yl)(4-{3-[(3R,5S)-3,4,5-trimethylpiperazin-1-yl]propyl}phenyl)methanone hydrochloride]	9.93	4.3	–
CCCc1cc2ccccn2c1C(=O)c1ccc(CCCCN(CC)CCC)cc1 [compound 32, (4-{4-[ethyl(propyl)amino]butyl}phenyl)(2-propylindolizin-3-yl)methanone hydrochloride]	5.64	5.60	–
CCCc1cc2ccccn2c1C(=O)c1ccc(CCCN(CC)CC)cc1.Cl [compound 3, {4-[3-(diethylamino)propyl]phenyl}(2-propylindolizin-3-yl)methanone hydrochloride]	> 10	5.82	–
CCCN(CC)CCCc1ccc(C(=O)c2c(CC)cc3ccccn23)cc1 [compound 24, (2-ethylindolizin-3-yl)(4-{3-[ethyl(propyl)amino]propyl}phenyl)methanone oxalate]	5.92	4.51	–
CCCCc1cc2ccccn2c1C(=O)c1ccc(CCCN(CCCC)CCCC)cc1 [compound 17, (2-butylindolizin-3-yl){4-[3-(dibutylamino)propyl]phenyl}methanone hydrochloride]	> 10	4.88	–
CCCCc1cc2ccccn2c1C(=O)c1ccc(CCCN(CCC)CCC)cc1 [compound 7, (2-butylindolizin-3-yl){4-[3-(dipropylamino)propyl]phenyl}methanone hydrochloride]	8.57	5.65	–
CCCCc1cc2ccccn2c1C(=O)c1ccc(CCCN2CCCCC2)cc1 [compound 42, (2-butylindolizin-3-yl)[4-(3-piperidin-1-ylpropyl)phenyl]methanone oxalate]	1.66	5.18	–

Reference: patent US7799799B2, “Indolizine derivatives, method for preparing same, and therapeutic compositions comprising same” (Sanofi-Aventis, priority 2005, dated 2010)
